Patent publication US20140357655A1, “SPIROINDOLINE DERIVATIVES AS GONADOTROPIN- RELEASING HORMONE RECEPTOR ANTAGONISTS” (Bayer Intellectual Property GmbH, priority 2012, published 2014)

Biological target: T1, human GnRH receptor (Homo sapiens, UniProt P30968)
T1 sequence (P30968 1-328): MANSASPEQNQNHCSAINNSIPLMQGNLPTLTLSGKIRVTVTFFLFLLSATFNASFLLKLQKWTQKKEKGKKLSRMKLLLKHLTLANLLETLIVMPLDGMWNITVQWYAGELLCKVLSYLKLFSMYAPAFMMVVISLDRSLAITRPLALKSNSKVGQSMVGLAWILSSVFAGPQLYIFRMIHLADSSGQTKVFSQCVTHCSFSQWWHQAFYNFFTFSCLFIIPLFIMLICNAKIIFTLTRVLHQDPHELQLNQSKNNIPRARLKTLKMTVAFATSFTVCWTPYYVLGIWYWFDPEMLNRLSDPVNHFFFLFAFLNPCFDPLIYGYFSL
Assay: IP-One HTRF assay with buserelin (at EC80) stimulation
Type: cell-based
Details: CHO cells stably expressing human GnRH receptor, read-out: Potency in IP-One HTRF assay, given as IC50
How it was run: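 Ten-point duplicate titrations (20 μM to 1 nM) were fitted by 4-parameter model to normalized 665/620 nm HTRF ratios, 0% = no compound, 100% = no agonist. Assay measured IP1 accumulation in human GnRH-R CHO cells stimulated 1 h at 37° C with EC80 buserelin, then lysed 1 h at 22° C.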

Structure (SMILES) | IC50 [µM]
C=CCC1N(S(=O)(=O)c2ccc(F)cc2)c2ccc(C(=O)Nc3cccc(C(=O)O)c3)cc2C12CCS(=O)(=O)CC2 (stereo not shown) [Example 59, 3-[({1-[(4-fluorophenyl)sulfonyl]-1′,1′-dioxido-2-(prop-2-en-1-yl)-1,2,2′,3′,5′,6′-hexahydrospiro[indole-3,4′-thiopyran]-5-yl}carbonyl)amino]benzoic acid] | 0.08
O=C(NC1CCOc2ccccc21)c1ccc2c(c1)C1(CCS(=O)(=O)CC1)C(C1CC1)N2S(=O)(=O)c1ccc(F)cc1 (single isomer, unassigned) [Example 33.2, 2-cyclopropyl-N-(3,4-dihydro-2H-chromen-4-yl)-1-[(4-fluorophenyl)sulfonyl]-1,2,2′,3′,5′,6′-hexahydrospiro[indole-3,4′-thiopyran]-5-carboxamide 1′,1′-dioxide] | > 20
O=C(NCc1ccccc1C(F)F)c1ccc2c(c1)C1(CCS(=O)(=O)CC1)C(C1CC1)N2S(=O)(=O)c1ccc(F)cc1 (single isomer, unassigned) [Example 68.2, 2-cyclopropyl-N-[2-(difluoromethyl)benzyl]-1-[(4-fluorophenyl)sulfonyl]-1,2,2′,3′,5′,6′-hexahydrospiro[indole-3,4′-thiopyran]-5-carboxamide 1′,1′-dioxide] | 0.143
O=C(NCc1ccc(C(F)(F)F)cn1)c1ccc2c(c1)C1(CCS(=O)(=O)CC1)C(C1CC1)N2S(=O)(=O)c1ccc(F)cc1 (stereo not shown) [Example 65, 2-cyclopropyl-1-[(4-fluorophenyl)sulfonyl]-N-{[5-(trifluoromethyl)pyridin-2-yl]methyl}-1,2,2′,3′,5′,6′-hexahydrospiro[indole-3,4′-thiopyran]-5-carboxamide 1′,1′-dioxide] | 0.479
O=C(O)c1cccc(NC(=O)c2ccc3c(c2)C2(CCS(=O)(=O)CC2)C(C2CC2)N3S(=O)(=O)c2ccc(F)cc2)c1 (single isomer, unassigned) [Example 49.2, 3-[({2-cyclopropyl-1-[(4-fluorophenyl)sulfonyl]-1′,1′-dioxido-1,2,2′,3′,5′,6′-hexahydrospiro[indole-3,4′-thiopyran]-5-yl}carbonyl)amino]benzoic acid] | 0.109
NC(=O)c1ccc(S(=O)(=O)N2c3ccc(C(=O)NCc4ccccc4Cl)cc3C3(CCS(=O)(=O)CC3)C2C2CC2)cc1 (stereo not shown) [Example 94, 1-[(4-carbamoylphenyl)sulfonyl]-N-(2-chlorobenzyl)-2-cyclopropyl-1,2,2′,3′,5′,6′-hexahydrospiro[indole-3,4′-thiopyran]-5-carboxamide 1′,1′-dioxide] | 0.222
COc1cccc(S(=O)(=O)N2c3ccc(C(=O)NCc4ccccc4F)cc3C3(CCS(=O)(=O)CC3)C2C2CC2)c1 (single isomer, unassigned) [Example 47.2, 2-cyclopropyl-N-(2-fluorobenzyl)-1-[(3-methoxyphenyl)sulfonyl]-1,2,2′,3′,5′,6′-hexahydrospiro[indole-3,4′-thiopyran]-5-carboxamide 1′,1′-dioxide] | 8.87
COc1cccc(S(=O)(=O)N2c3ccc(C(=O)NCc4ccc(F)cc4Cl)cc3C3(CCS(=O)(=O)CC3)C2C2CC2)c1 (stereo not shown) [Example 46, N-(2-chloro-4-fluorobenzyl)-2-cyclopropyl-1-[(3-methoxyphenyl)sulfonyl]-1,2,2′,3′,5′,6′-hexahydrospiro[indole-3,4′-thiopyran]-5-carboxamide 1′,1′-dioxide] | 0.081
COc1cccc(S(=O)(=O)N2c3ccc(C(=O)NCc4ccccc4F)cc3C3(CCS(=O)(=O)CC3)C2C2CC2)c1 (single isomer, unassigned) [Example 47.1, 2-cyclopropyl-N-(2-fluorobenzyl)-1-[(3-methoxyphenyl)sulfonyl]-1,2,2′,3′,5′,6′-hexahydrospiro[indole-3,4′-thiopyran]-5-carboxamide 1′,1′-dioxide] | 0.073
CN(C)S(=O)(=O)c1cccc(NC(=O)c2ccc3c(c2)C2(CCS(=O)(=O)CC2)C(C2CC2)N3S(=O)(=O)c2ccc(F)cc2)c1 (single isomer, unassigned) [Example 37.2, 2-cyclopropyl-N-[3-(N,N-dimethylsulfamoyl)phenyl]-1-[(4-fluorophenyl)sulfonyl]-1,2,2′,3′,5′,6′-hexahydrospiro[indole-3,4′-thiopyran]-5-carboxamide 1′,1′-dioxide] | 0.044
COc1cccc(S(=O)(=O)N2c3ccc(C(=O)NCc4ccccc4Cl)cc3C3(CCS(=O)(=O)CC3)C2C2CC2)c1 (single isomer, unassigned) [Example 44.1, N-(2-chlorobenzyl)-2-cyclopropyl-1-[(3-methoxyphenyl)sulfonyl]-1,2,2′,3′,5′,6′-hexahydrospiro[indole-3,4′-thiopyran]-5-carboxamide 1′,1′-dioxide] | 0.025
Cc1ccc(NC(=O)c2ccc3c(c2)C2(CCS(=O)(=O)CC2)C(C2CC2)N3S(=O)(=O)c2ccc(F)cc2)nc1 (stereo not shown) [Example 29, 2-cyclopropyl-1-[(4-fluorophenyl)sulfonyl]-N-(5-methylpyridin-2-yl)-1,2,2′,3′,5′,6′-hexahydrospiro[indole-3,4′-thiopyran]-5-carboxamide 1′,1′-dioxide] | > 20
O=C(Nc1ccon1)c1ccc2c(c1)C1(CCS(=O)(=O)CC1)C(C1CC1)N2S(=O)(=O)c1ccc(F)cc1 (single isomer, unassigned) [Example 63.2, 2-cyclopropyl-1-[(4-fluorophenyl)sulfonyl]-N-(1,2-oxazol-3-yl)-1,2,2′,3′,5′,6′-hexahydrospiro[indole-3,4′-thiopyran]-5-carboxamide 1′,1′-dioxide] | 3.43
COc1cccc(S(=O)(=O)N2c3ccc(C(=O)NCc4ncccc4C(F)(F)F)cc3C3(CCS(=O)(=O)CC3)C2C2CC2)c1 (single isomer, unassigned) [Example 39.1, 2-cyclopropyl-1-[(3-methoxyphenyl)sulfonyl]-N-{[3-(trifluoromethyl)pyridin-2-yl]methyl}-1,2,2′,3′,5′,6′-hexahydrospiro[indole-3,4′-thiopyran]-5-carboxamide 1′,1′-dioxide] | 0.04
COC(=O)c1cccc(S(=O)(=O)N2c3ccc(C(=O)NCc4ccccc4Cl)cc3C3(CCS(=O)(=O)CC3)C2C2CC2)c1 (single isomer, unassigned) [Example 60.2, methyl 3-({5-[(2-chlorobenzyl)carbamoyl]-2-cyclopropyl-1′,1′-dioxido-2′,3′,5′,6′-tetrahydrospiro[indole-3,4′-thiopyran]-1(2H)-yl}sulfonyl)benzoate] | 1.14
CC1N(S(=O)(=O)c2ccc(F)cc2)c2ccc(C(=O)NCc3ccccc3C(F)(F)F)cc2C12CCOCC2 (stereo not shown) [Example 4, 1-[(4-fluorophenyl)sulfonyl]-2-methyl-N-[2-(trifluoromethyl)benzyl]-1,2,2′,3′,5′,6′-hexahydrospiro[indole-3,4′-pyran]-5-carboxamide] | 0.281
O=C(NCc1ccccc1Cl)c1ccc2c(c1)C1(CCS(=O)(=O)CC1)C(C1CC1)N2S(=O)(=O)c1ccc(F)cc1 (stereo not shown) [Example 18, N-(2-chlorobenzyl)-2-cyclopropyl-1-[(4-fluorophenyl)sulfonyl]-1,2,2′,3′,5′,6′-hexahydrospiro[indole-3,4′-thiopyran]-5-carboxamide 1′,1′-dioxide] | 0.047
O=C(NCC1CCCCC1)c1ccc2c(c1)C1(CCS(=O)(=O)CC1)C(C1CC1)N2S(=O)(=O)c1ccc(F)cc1 (single isomer, unassigned) [Example 36.1, N-(cyclohexylmethyl)-2-cyclopropyl-1-[(4-fluorophenyl)sulfonyl]-1,2,2′,3′,5′,6′-hexahydrospiro[indole-3,4′-thiopyran]-5-carboxamide 1′,1′-dioxide] | 0.107
NS(=O)(=O)c1cccc(NC(=O)c2ccc3c(c2)C2(CCS(=O)(=O)CC2)C(C2CC2)N3S(=O)(=O)c2ccc(F)cc2)c1 (single isomer, unassigned) [Example 30.1, 2-cyclopropyl-1-[(4-fluorophenyl)sulfonyl]-N-(3-sulfamoylphenyl)-1,2,2′,3′,5′,6′-hexahydrospiro[indole-3,4′-thiopyran]-5-carboxamide 1′,1′-dioxide] | 0.441
CC(C)(NC(=O)c1ccc2c(c1)C1(CCS(=O)(=O)CC1)C(C1CC1)N2S(=O)(=O)c1ccc(F)cc1)c1ccc(F)cc1Cl (stereo not drawn) [Example 19, N-(2-chloro-4-fluoro-α,α-dimethylbenzyl)-2-cyclopropyl-1-[(4-fluorophenyl)sulfonyl]-1,2,2′,3′,5′,6′-hexahydrospiro[indole-3,4′-thiopyran]-5-carboxamide 1′,1′-dioxide] | 4.17
O=C(O)c1cccc(NC(=O)c2ccc3c(c2)C2(CCS(=O)(=O)CC2)C(C2CC2)N3S(=O)(=O)c2ccc(F)cc2)c1 (single isomer, unassigned) [Example 49.1, 3-[({2-cyclopropyl-1-[(4-fluorophenyl)sulfonyl]-1′,1′-dioxido-1,2,2′,3′,5′,6′-hexahydrospiro[indole-3,4′-thiopyran]-5-yl}carbonyl)amino]benzoic acid] | 0.04
C=CCC1N(S(=O)(=O)c2ccc(F)cc2)c2ccc(C(=O)NCc3ncccc3Cl)cc2C12CCS(=O)(=O)CC2 (stereo not shown) [Example 57, N-[(3-chloropyridin-2-yl)methyl]-1-[(4-fluorophenyl)sulfonyl]-2-(prop-2-en-1-yl)-1,2,2′,3′,5′,6′-hexahydrospiro[indole-3,4′-thiopyran]-5-carboxamide 1′,1′-dioxide] | 0.071
